Experimental data published in US20070274947A1, “Antisense Oligonucleotides Directed to Ribonucleotide Reductase R1 and Uses Thereof in the Treatment of Cancer” (priority 2003, published 2007).
“Also recorded” adds a separate entry of the source.

Experiments:
[1] = Tissue distribution after continuous infusion in rats; assay type: in vivo; details: rat
[2] = system: R1 mRNA; assay: R1 mRNA levels in HT-29 colon tumors in nude mice (Northern blot); assay type: in vivo, human; details: day 16, 10 mg/kg every other day, two independent HT-29 tumors
Experimental: Effects of SEQ ID NO:1 administration on R1 mRNA levels in HT-29 colon tumors in nude mice were investigated.
For determination of mRNA levels in tumors by Northern Blot, total RNA was prepared from excised tumors using TRIzol reagent (GIBCO BRL). Northern blot analysis was performed as previously described (Hurta and Wright, 1995). RNA was subjected to electrophoresis through 1% formaldehyde agarose gels followed by transfer to nylon membranes. Blots were hybridized in the presence of a R1 fragment (McClarty et al, 1987). Glyceraldehyde-3-phosphate dehydrogenase (GAPDH) mRNA levels were simultaneously probed for RNA loading controls.
The results provide strong evidence that SEQ ID NO:1 is reaching the tumor site in vivo and is acting by an antisense mechanism of action.

[3] = system: SK-OV-3 (ovary); assay: Colony forming ability, SK-OV-3; assay type: cell-based, human; details: 0.2 μM antisense oligonucleotide/lipofectin, 4 hours
Experimental: (§1) The effect of SEQ ID NO:1 on the colony forming ability were evaluated in the following human tumor cell lines:
(§2) Tumor cells were washed in 5 ml of phosphate buffered saline, pH 7.2, prior to 0.2 μM antisense oligonucleotide/lipofectin treatment for 4 hours. The medium was removed and the cells were gently washed with 5 ml of growth medium. The cells were then cultured in growth medium for seven to ten days. Surviving colonies were visualized by methylene blue staining and colonies of 50 or more cells were scored (Choy et al., 1988 and Huang and Wright, 1994). Results are summarized from 4 to 8 trials for each tumor cell line.

[4] = system: H460 (lung); assay: Colony forming ability, H460; assay type: cell-based, human; details: 0.2 μM antisense oligonucleotide/lipofectin, 4 hours
Experimental: as §1, §2

[5] = system: HT-29 human colon cancer cells; assay: HT-29 colon tumor growth in CD-1 nude mice; assay type: in vivo; details: for tumor weight / tumor growth: SEQ ID NO:1 10 mg/kg every other day
Experimental: A. HT-29 human colon cancer cells (3×10^6 cells in 100 μl of PBS) were subcutaneously injected into the right flank of 6-7 weeks old female CD-1 nude mice. After the size of tumor reached an approximate volume of 50 mm^3, 4 days post tumor cell injection, SEQ ID NO:1 was administered by bolus infusion into the tail vein every other day at 10 mg/kg. Control animals received saline alone for the same period. Antitumor effect of SEQ ID NO:1 was further compared to that of mitomycin C alone or that of SEQ ID NO:1 in combination with mitomycin C. Mitomycin C was administered intravenously at days 4, 11 and 18 with a dose of 3.5 mg/kg/week, one hour after the treatments with SEQ ID NO:1. All treatments were stopped at day 22. A day after the last treatment, tumors were excised from the animals and their weights were measured (FIG. 13A). […] The delay in tumor growth achieved with SEQ.
B. HT-29 human colon cancer cells (3×10^6 cells in 100 μl of PBS) were subcutaneously injected into the right flank of 5-6 week old female CD-1 nude mice. After the size of tumor reached an approximate volume of 100 mm^3, 7 days post tumor cell injection, SEQ ID NO:1 was administered by bolus infusion into the tail vein every other day at 10 mg/kg. Control animals received saline alone for the same period. Antitumor effect of SEQ ID NO:1 was further compared to that of CPT-11 alone or that of SEQ ID NO:1 in combination with CPT-11. CPT-11 was administered intraperitoneally for 5 days in a row from day 7-12 with a dose of 20 mg/kg in 100 μl saline. All treatments were stopped at day 32. A day after the last treatment, tumors were excised from the animals and their weights were measured (FIG. 13B).

[6] = system: LS513 cells; assay: LS513 multi-drug resistant colon adenocarcinoma growth in SCID mice; assay type: in vivo, human
Experimental: LS513 cells (1×10^7 cells in 100 μl of PBS) were subcutaneously injected into the right flank of 6-7 weeks old female SCID mice. After the size of tumor reached an approximate volume of 100 mm^3, 8 days post tumor cell injection, SEQ ID NO:1 was administered by bolus infusion into the tail vein every other day at 10 mg/kg. Control animals received saline alone for the same period. Antitumor effect of SEQ ID NO:1 was further compared to that of CPT-11. CPT-11 was administered i.p. for 5 days at a dose of 20 mg/kg/day. Antitumor activities were estimated by the inhibition of tumor volume, which was measured with calipers. Each point represents mean tumor volume calculated from 10 animals per experimental group (FIG. 16A). Tumor weights were measured after animals were sacrificed at the end of the treatment (FIGS. 16B and 16C). These cells are not resistant to CPT-11, which was used as a positive control.

[7] = rat, in vivo
[8] = cynomolgus monkey, in vivo
[9] = cynomolgus monkey, in vivo; remark: listed apart in the source
[10] = Repeat dose 14-day toxicity study in monkeys (Part 1); details: monkey

Question: What does the source list for “5′-CTCTAGCGTCTTAAAGCCGA-3′ (CTCTAGCGTCTTAAAGCCGA; chemistry not given here) [SEQ ID NO:1]”?
Answer: levels in the brain [1]: very low or below the limits of detection; also recorded: undetectable; tissue concentrations, rank order [1]: kidney>liver>spleen>lymph node (monkey)>lung (monkey)>heart; also recorded: highest in the kidney followed by the liver, spleen and heart; R1 mRNA levels in tumors [2]: marked reduction; also recorded: decreased R1 mRNA levels; inhibition in colony forming ability [3]: greater than 60%; inhibition in colony forming ability [4]: greater than 60%; delay in tumor growth compared with mitomycin C alone ([5]; FIG. 13A): superior to the inhibitory effects observed with mitomycin C alone; tumor weight / tumor growth ([5]; FIG. 13A, mitomycin C 3.5 mg/kg/week i.v., stopped day 22): significant delay of tumor growth; tumor weight / tumor growth ([5]; FIG. 13B, CPT-11 20 mg/kg i.p. 5 days, stopped day 32): significant delay of tumor growth; efficacy compared with CPT-11 ([6]; CPT-11 20 mg/kg/day i.p. for 5 days): more effective than CPT-11; tumor growth (volume, weight) ([6]; SCID mice, 10 mg/kg i.v. every other day, vs saline): significant delay of tumor growth; elimination from plasma (profile) [7]: biphasic; measurable in plasma post dose [7]: up to 24 h; plasma levels (AUC and Cmax) versus dose [7]: increased in proportion to administered dose; time of Cmax / maximum concentration post dose ([7]; iv): 5 min; apparent terminal elimination phase t1/2 ([7]; iv, 50 mg/kg): 4.72 to 5.80 h; plasma clearance ([7]; iv, 50 mg/kg): 49.67-43.30 mL/kg·h; clinical parameters in mid and low dose animals [8]: Transient changes; complement split product Bb [8]: appeared to increase; activated partial thromboplastin time (APTT) ([8]; 40 mg/kg/day): reversible increase; APTT values compared to control [9]: significantly longer; WBC counts [9]: marked increase; appetite [9]: significant decrease in appetite noted in the majority of high dose males; clinical signs [9]: Treatment-related reversible clinical signs were limited to a few high dose animals; lymphoid atrophy [9]: minimal to moderate lymphoid atrophy; ophthalmoscopy [9]: Bilateral retinopathy was noted in one high dose male; organ weights [9]: slight increase in relative and absolute kidney weights; red blood cell, hematocrit, and hemoglobin values [9]: slight to moderate reductions; summary of effects ([9]; 50 mg/kg/day): reversible signs of weakness, decreases in body weight and appetite, prolongation of APTT, anemia, thrombocytopenia, and monocytosis; deaths, clinical signs, appetite, ophthalmology, cardiology, hematology, organ weights ([10]; 14-day infusion up to 40 mg/kg/day): no deaths, no treatment-related clinical signs, effects on appetite, ophthalmology effects, cardiology, hematology effects, or changes in organ weights; toxicity ([10]; continuously for 14 days at 10 mg/kg/day (123 mg/m^2/day)): Minimal and reversible toxicity
